Read-outs that look alike come from different tables or passages of the source.
Tests used:
[1] = tested on: ASPC1 pancreatic adenocarcinoma cells [homozygous G12D]; experiment: Cancer cell line proliferation (CellTiter-Glo), ASPC1; type: cell-based; details: 72 hr treatment, read-out: ASPC-1 CTG (EC50)
Protocol: The following cancer cell lines were employed: AGS gastric carcinoma [heterozygous G12D](ATCC, CRL-1739); A-427 lung carcinoma [heterozygous G12D](ATCC, HTB-53); ASPC1 pancreatic adenocarcinoma [homozygous G12D](ATCC, CRL-1682) and SW1990 pancreatic adenocarcinoma [homozygous G12D](ATCC CRL-2172). Cell lines were cultured essentially according to ATCC recommendations.
AGS, A-427, ASPC1, SW1990, and GP2D cells were plated in 96-well tissue culture plates at 4,000 cells/well and incubated at 37° C./5% CO2 for 72 hr in 100 μl of media. 3-fold serial dilutions of each test compound were prepared ranging from 20 μM to 1.02 nM. Each cell line was then treated with test compounds at various concentrations with a final concentration of 0.5% DMSO/well, and then incubated at 37° C./5% CO2 for 72 hr. 100 µl of CellTiter-Glo® Reagent (Promega Corporation, Madison, WI) was added to each well and processed according manufacturer's protocol. Results were analyzed and EC50 values were calculated in GraphPad 7 software.

[2] = tested on: AGS gastric carcinoma cells [heterozygous G12D]; experiment: Cancer cell line proliferation (CellTiter-Glo), AGS; type: cell-based; details: 72 hr treatment, read-out: AGS CTG (EC50)
Procedure, shortened: (§1)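 EC50 values come from CellTiter-Glo viability measured after 72 hr compound treatment at 37° C./5% CO2 with 0.5% final DMSO. Plating was at 4,000 cells/well with 72 hr growth before dosing, and compounds were serially diluted 3-fold from 20 μM down to 1.02 nM.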

KRAS(G12D)/SOS1 = molecular target: T1, KRAS(G12D)/SOS1 (Homo sapiens, UniProt P01116, G12D); experiment: KRAS(G12D)/SOS1 homogeneous time-resolved fluorescence (HTRF) assay; type: binding; details: absence of GTP; 4° C., 3 hr
T1 construct: purchased Cisbio 63ADK000CB17PEH
T1 sequence (P01116 1-188 isoform P01116-2 G12D): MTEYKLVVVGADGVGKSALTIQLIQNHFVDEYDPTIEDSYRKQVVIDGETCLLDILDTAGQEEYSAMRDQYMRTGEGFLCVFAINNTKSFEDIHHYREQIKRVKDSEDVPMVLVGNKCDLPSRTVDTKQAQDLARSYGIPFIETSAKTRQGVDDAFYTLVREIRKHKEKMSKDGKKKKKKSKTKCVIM
Procedure, shortened: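 HTRF kit assay of compound-blocked KRAS(G12D)–SOS1 interaction, run without GTP. Compounds were tested as 3-fold dilutions from 20 µM to 1.02 nM and incubated with the reaction components for 3 hr at 4 °C, sealed. IC50 was taken as the concentration giving 50% of maximal inhibition.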

[3] = tested on: A-427 lung carcinoma cells [heterozygous G12D]; experiment: Cancer cell line proliferation (CellTiter-Glo), A-427; type: cell-based; details: A-427 cells, 72 hr treatment, read-out: A427 CTG (EC50)
Procedure, shortened: as §1

Compound	EC50 ([1]; Homo sapiens, ASPC1, 72 h)	EC50 ([2]; Homo sapiens)	IC50 (KRAS(G12D)/SOS1)	EC50 ([3]; Homo sapiens)	EC50 [1]	EC50 [2]	EC50 [3]
C#Cc1cccc2cccc(-c3ncc4c(N5CC6CCC(C5)N6)nc(OCCN5CCN(Cc6ccc(-n7c(C(=O)NCC)nnc7-c7cc(C(C)C)c(O)cc7O)cc6)CC5)nc4c3F)c12 [Compound 17]	100 to 1000 nM	< 100 nM	< 100 nM	< 100 nM			
C#Cc1cccc2cccc(-c3ncc4c(N5CC6CCC(C5)N6)nc(OCCN5CCN(C(=O)C6CCN(Cc7ccc(-n8c(O)nnc8-c8cc(C(C)C)c(O)cc8O)cc7)CC6)CC5)nc4c3F)c12 [Compound 20]	> 1000 nM	100 to 1000 nM	100 to 1000 nM	100 to 1000 nM			
CC(C)c1cc(C(=O)N2Cc3ccc(CN(C)[C@H]4CN5CCC[C@@]5(COc5nc(N6CC7CCC(C6)N7)c6cnc(-c7cc(O)cc8ccccc78)c(F)c6n5)C4)cc3C2)c(O)cc1O [Compound 44]	> 1000 nM	100 to 1000 nM	< 100 nM	100 to 1000 nM			
CC(C)c1cc(-c2nnc(O)n2-c2ccc(CN(C)[C@@H]3CN4CCC[C@]4(COc4nc(N5CC6CCC(C5)N6)c5cnc(-c6cc(O)cc7ccccc67)c(F)c5n4)C3)cc2)c(O)cc1O [Compound 43]			< 100 nM		> 1000 nM	> 1000 nM	> 1000 nM
Cc1cccc2cccc(-c3ncc4c(N5CC6CCC(C5)N6)nc(OC[C@@H]5C[C@H](N6CCN(Cc7ccc8c(c7)CN(C(=O)c7cc(C(C)C)c(O)cc7O)C8)CC6)CN5C)nc4c3F)c12 [Compound 37]		100 to 1000 nM	< 100 nM	100 to 1000 nM	100 to 1000 nM		
CCNC(=O)c1nnc(-c2cc(C(C)C)c(O)cc2O)n1-c1ccc(CN2CCN([C@H]3C[C@@H](COc4nc(N5CC6CCC(C5)N6)c5cnc(-c6cc(O)cc7ccccc67)c(F)c5n4)N(C)C3)CC2)cc1 [Compound 31]	> 1000 nM	100 to 1000 nM	< 100 nM	100 to 1000 nM			
Cc1c(F)cccc1-c1ncc2c(N3CC4CCC(C3)N4)nc(OC[C@@H]3C[C@H](N4CCN(Cc5ccc6c(c5)CN(C(=O)c5cc(C(C)C)c(O)cc5O)C6)CC4)CN3C)nc2c1F [Compound 61]	100 to 1000 nM	100 to 1000 nM	> 1000 nM	100 to 1000 nM			
C#Cc1cccc2cccc(-c3ncc4c(N5CC6CCC(C5)N6)nc(OCC5(CN6CCN(Cc7ccc(-n8c(C(=O)NCC)nnc8-c8cc(C(C)C)c(O)cc8O)cc7)CC6)CC5)nc4c3F)c12 [Compound 12]	100 to 1000 nM	< 100 nM	< 100 nM	< 100 nM			
C#Cc1cccc2cccc(-c3ncc4c(N5CC6CCC(C5)N6)nc(OC[C@@H]5C[C@H](N6CCN(Cc7ccc(-n8c(C(=O)NCC)nnc8-c8cc(C(C)C)c(O)cc8O)cc7)CC6)CN5C)nc4c3F)c12 [Compound 36]	100 to 1000 nM	< 100 nM	< 100 nM	100 to 1000 nM			
C#Cc1cccc2cccc(-c3ncc4c(N5CC6CCC(C5)N6)nc(OCCN5CCN(Cc6ccc7c(c6)CN(C(=O)c6cc(C(C)C)c(O)cc6O)C7)CC5)nc4c3F)c12 [Compound 14]	100 to 1000 nM	100 to 1000 nM	100 to 1000 nM	100 to 1000 nM			
CC(C)c1cc(C(=O)N2Cc3ccc(CN4CCN(C[C@H]5CC[C@@H](COc6nc(N7CC8CCC(C7)N8)c7cnc(-c8cc(O)cc9ccccc89)c(F)c7n6)N5C)CC4)cc3C2)c(O)cc1O [Compound 64]	100 to 1000 nM	100 to 1000 nM	< 100 nM	100 to 1000 nM			
C#Cc1cccc2cc(O)cc(-c3ncc4c(N5CC6CNC(C6)C5)nc(OCC5(CN6CCN(CC7CCN(Cc8ccc(-n9c(C(=O)NCC(F)(F)F)nnc9-c9cc(C(C)C)c(O)cc9O)cc8)CC7)CC6)CC5)nc4c3F)c12 (stereo not shown) [Compound 135]	100 to 1000 nM	100 to 1000 nM	< 100 nM	100 to 1000 nM			
CC(C)c1cc(-c2nnc(O)n2-c2ccc(CN(C)[C@@H]3CN4CCC[C@]4(COc4nc(N5CC6CCC(C5)N6)c5cnc(-c6cc(O)cc7ccccc67)c(F)c5n4)C3)cc2)c(O)cc1O [Compound 42]	> 1000 nM	> 1000 nM	< 100 nM	> 1000 nM			
